Experimental data published in patent US8299070B2, “Indole compounds and pharmaceutical use thereof” (Japan Tobacco Inc., priority 2009, dated 2012).

Target: T1, hITK enzyme (FLAG-tagged full-length hITK) (Homo sapiens, UniProt Q08881)
T1 construct: strongly expressing FLAG-tagged full-length hITK in Sf9 cells; FLAG; made in house; host or cells: Sf9 insect cells (ITK); Escherichia coli (GST-SLP76 substrate)
T1 sequence (Q08881 1-620): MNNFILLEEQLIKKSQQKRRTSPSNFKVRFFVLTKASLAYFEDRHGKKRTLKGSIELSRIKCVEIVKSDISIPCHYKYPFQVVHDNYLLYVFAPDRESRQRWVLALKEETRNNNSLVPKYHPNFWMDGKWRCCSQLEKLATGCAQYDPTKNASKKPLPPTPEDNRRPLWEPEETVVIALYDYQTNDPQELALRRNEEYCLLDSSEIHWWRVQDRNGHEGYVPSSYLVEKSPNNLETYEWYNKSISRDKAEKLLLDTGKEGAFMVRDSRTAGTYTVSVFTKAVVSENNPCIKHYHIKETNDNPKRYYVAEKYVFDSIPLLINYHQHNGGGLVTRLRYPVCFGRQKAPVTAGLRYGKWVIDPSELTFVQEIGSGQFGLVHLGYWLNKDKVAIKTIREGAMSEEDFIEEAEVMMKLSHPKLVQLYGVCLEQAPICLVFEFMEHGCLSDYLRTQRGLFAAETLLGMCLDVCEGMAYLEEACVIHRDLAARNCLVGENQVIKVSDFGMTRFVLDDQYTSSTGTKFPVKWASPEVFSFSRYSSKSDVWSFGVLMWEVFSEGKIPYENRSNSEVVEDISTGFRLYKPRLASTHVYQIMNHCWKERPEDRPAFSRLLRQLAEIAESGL
Assay: ITK inhibitory activity (HTRF kinase assay, biotinylated GST-SLP76 substrate)
Assay type: biochemical
Procedure, shortened: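 Sf9-expressed hITK (50 ng/mL enzyme solution) reacted 10 min at RT in MOPS pH 7.0, 10 mmol/L MgCl2, 1 mmol/L DTT with E. coli SLP76 aa95–175 substrate; substrate solution held 100 µmol/L ATP (6 µmol/L for selected compounds). HTRF 665/620 ratio, blank-corrected; IC50 interpolated between two concentrations bracketing 50% inhibition.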

[1] = IC50 calculated from the 2 test compound concentrations sandwiching 50% ITK inhibitory rate

Row | IC50 [1] [nM] | IC50 (ATP concentration of the substrate solution 6 μmol/L (Examples 380 and 381)) [nM] | Structure (SMILES)
1 | 3 |  | C[C@@H](C(=O)N(CCO)c1ccc2cc(-c3n[nH]c4c3CCC(C)(C)C4)[nH]c2c1)N1CCOCC1 [Example 255]
2 | 9 |  | COCCN(C(=O)CC1CCC(OC)CC1)c1ccc2cc(-c3n[nH]c4c3CCC(C)(C)C4)[nH]c2c1 (centres unmarked) [Example 274]
3 | 2 |  | CN(C(=O)COC1CCCOC1)c1ccc2cc(-c3n[nH]c4c3CCC(C)(C)C4)[nH]c2c1 (centres unmarked) [Example 123]
4 | 7 |  | COC1CCC(CC(=O)N(C)c2ccc3cc(-c4n[nH]c5c4CCC(C)(C)C5)[nH]c3c2)CC1 (centres unmarked) [Example 176]
5 | 78 |  | CC1(C)CCc2c(-c3cc4cc(C(=O)N5CCN(C(=O)OC(C)(C)C)CC5)ccc4[nH]3)n[nH]c2C1 [Example 336]
6 | 7 |  | Cc1cc(C(=O)N(C)c2ccc3cc(-c4n[nH]c5c4CCC(C)(C)C5)[nH]c3c2)no1 [Example 59]
7 | 140 |  | CC1(C)CCc2c(-c3cc4cc(C(=O)Nc5nnc(O)s5)ccc4[nH]3)n[nH]c2C1 [Example 324]
8 | 40 |  | CC1(C)CCc2c(-c3cc4ccc(N5CCC(CO)C5=O)cc4[nH]3)n[nH]c2C1 (centres unmarked) [Example 228]
9 | 5 |  | CCN(C(=O)CC1CCOCC1)c1ccc2cc(-c3n[nH]c4c3CCC(C)(C)C4)[nH]c2c1 [Example 268]
10 | 45 |  | CC(N(C)C(=O)c1ccc2cc(-c3n[nH]c4c3CCC(C)(C)C4)[nH]c2c1)C(C)(C)C (centres unmarked) [Example 18]
11 | 42 |  | CC1(C)CCc2c(-c3cc4cc(C(=O)NC(C)(C)C(=O)O)ccc4[nH]3)n[nH]c2C1 [Example 326]
12 | 5 |  | COC1CCCC(C(=O)N(C)c2ccc3cc(-c4n[nH]c5c4CCC(C)(C)C5)[nH]c3c2)C1 (centres unmarked) [Example 100]
13 | 2 |  | CN(C(=O)CN1CCCCCCC1=O)c1ccc2cc(-c3n[nH]c4c3CCC(C)(C)C4)[nH]c2c1 [Example 187]
14 | 33 |  | CC1(C)CCc2c(-c3cc4cc(C(=O)NCCO)ccc4[nH]3)n[nH]c2C1 [Example 303]
15 | 3 |  | CN(C(=O)C(O)C1CCOCC1)c1ccc2cc(-c3n[nH]c4c3CCC(C)(C)C4)[nH]c2c1 (centres unmarked) [Example 95]
16 | 39 |  | CC1(C)CCc2c(-c3cc4cc(C(=O)N5CCC(O)CC5)ccc4[nH]3)n[nH]c2C1 [Example 302]
17 | 7 |  | CCN(c1ccc2cc(-c3n[nH]c4c3CCC(C)(C)C4)[nH]c2c1)C(=O)[C@H]1CC[C@@H](OC)CC1 [Example 266]
18 | 31 |  | CC1(C)CCc2c(-c3cc4cc(C(=O)N5CCc6[nH]cnc6C5)ccc4[nH]3)n[nH]c2C1 [Example 334]
19 | 41 |  | CC1(C)CCc2c(-c3cc4cc(C(=O)NCCN5CCOCC5)ccc4[nH]3)n[nH]c2C1 [Example 322]
20 | 34 |  | CC1(C)CCc2c(-c3cc4ccc(N5CCC(CO)(C6CCCCC6)C5=O)cc4[nH]3)n[nH]c2C1 (centres unmarked) [Example 251]
21 | 26 |  | CN(C(=O)NCc1ccccc1)c1ccc2cc(-c3n[nH]c4c3CCC(C)(C)C4)[nH]c2c1 [Example 51]

Row | IC50 [1] [nM] | IC50 (ATP concentration of the substrate solution 6 μmol/L (Examples 380 and 381)) [nM] | Structure (SMILES)
22 | 13 |  | CN(c1ccc2cc(-c3n[nH]c4c3CCC(C)(C)C4)[nH]c2c1)C(=O)[C@H]1CC[C@H](O)CC1 [Example 101]
23 | 2 |  | CCN(C(=O)CN1CCCCCC1=O)c1ccc2cc(-c3n[nH]c4c3CCC(C)(C)C4)[nH]c2c1 [Example 270]
24 | 4 |  | CCC(OC)C(=O)N(C)c1ccc2cc(-c3n[nH]c4c3CCC(C)(C)C4)[nH]c2c1 (centres unmarked) [Example 50]
25 | 3 |  | CN(C(=O)CN1CCCCC1=O)c1ccc2cc(-c3n[nH]c4c3CCC(C)(CO)C4)[nH]c2c1 (centres unmarked) [Example 8, N-[2-(6-hydroxymethyl-6-methyl-4,5,6,7-tetrahydro-1H-indazol-3-yl)-1H-indol-6-yl]-N-methyl-2-(2-oxopiperidin-1-yl)acetamide]
26 | 842 |  | CN(C(=O)c1ccccc1)c1ccc2[nH]c(-c3n[nH]c4c3CCC(C)(C)C4)cc2c1 [Example 339]
27 | 5 |  | CCN(C(C)=O)c1ccc2cc(-c3n[nH]c4c3CCC(C)(C)C4)[nH]c2c1 [Example 2, N-[2-(6,6-dimethyl-4,5,6,7-tetrahydro-1H-indazol-3-yl)-1H-indol-6-yl]-N-ethylacetamide]
28 | 40 |  | COCC(C)N(C)C(=O)c1ccc2cc(-c3n[nH]c4c3CCC(C)(C)C4)[nH]c2c1 (centres unmarked) [Example 22]
29 | 11 |  | C[C@H](C(=O)N(CCO)c1ccc2cc(-c3n[nH]c4c3CCC(C)(C)C4)[nH]c2c1)N1CCOCC1 [Example 252]
30 | 7 |  | CC(C(=O)N(C)c1ccc2cc(-c3n[nH]c4c3CCC(C)(C)C4)[nH]c2c1)N1CCC[C@@H](O)C1 (some centres unmarked) [Example 112]
31 | 7 |  | CN(C(=O)C1CC(=O)OC1(C)C)c1ccc2cc(-c3n[nH]c4c3CCC(C)(C)C4)[nH]c2c1 (centres unmarked) [Example 106]
32 | 4 |  | CCN(C(=O)COC)c1ccc2cc(-c3n[nH]c4c3CCC(C)(C)C4)[nH]c2c1 [Example 207]
33 | 4 |  | CC[C@@H](C(=O)N(C)c1ccc2cc(-c3n[nH]c4c3CCC(C)(C)C4)[nH]c2c1)N1CCOCC1 [Example 190]
34 | 2 |  | CN(C(=O)C1CCC(=O)N1)c1ccc2cc(-c3n[nH]c4c3CCC(C)(C)C4)[nH]c2c1 (centres unmarked) [Example 128]
35 | 7 |  | CCN(C(=O)C(C)C1CCOCC1)c1ccc2cc(-c3n[nH]c4c3CCC(C)(C)C4)[nH]c2c1 (centres unmarked) [Example 263]
36 | < 1 |  | CN(C(=O)CN1CC[C@@H](O)CC1=O)c1ccc2cc(-c3n[nH]c4c3CCC(C)(C)C4)[nH]c2c1 [Example 170]
37 | 5 |  | CN(C)CCCN(C(=O)C1CCOCC1)c1ccc2cc(-c3n[nH]c4c3CCC(C)(C)C4)[nH]c2c1 [Example 223]
38 | 62 |  | CN(C(=O)c1ccccc1)c1ccc2cc(-c3n[nH]c4c3CCCC4)[nH]c2c1 [Example 350]
39 | 4 |  | CC(C(=O)N(C)c1ccc2cc(-c3n[nH]c4c3CCC(C)(C)C4)[nH]c2c1)N(CCO)CC(=O)O (centres unmarked) [Example 379]
40 | 485 |  | CN(C(=O)OCc1ccccc1)c1ccc2cc(-c3n[nH]c4c3CC(OCc3ccccc3)C(C)(C)C4)[nH]c2c1 (centres unmarked) [Example 363]
41 | 44 |  | CC1(C)CCc2c(-c3cc4cc(C(=O)N5CCOCC5)ccc4[nH]3)n[nH]c2C1 [Example 298]
42 | 4 |  | CN(C(=O)CC(C)(C)O)c1ccc2cc(-c3n[nH]c4c3CCC(C)(C)C4)[nH]c2c1 [Example 69]

Row | IC50 [1] [nM] | IC50 (ATP concentration of the substrate solution 6 μmol/L (Examples 380 and 381)) [nM] | Structure (SMILES)
43 | 8 |  | COCC(O)C(=O)N(C)c1ccc2cc(-c3n[nH]c4c3CCC(C)(C)C4)[nH]c2c1 (centres unmarked) [Example 53]
44 | 327 |  | CC1(C)CCc2c(-c3cc4ccc(NC(=O)c5ccccc5)cc4[nH]3)n[nH]c2C1 [Example 27]
45 | 5 |  | CC1COCC(=O)N1C(C)C(=O)N(C)c1ccc2cc(-c3n[nH]c4c3CCC(C)(C)C4)[nH]c2c1 (centres unmarked) [Example 153]
46 | 2 |  | CN(C(=O)[C@@H]1CCCO1)c1ccc2cc(-c3n[nH]c4c3CCC(C)(C)C4)[nH]c2c1 [Example 139]
47 | 34 |  | CN(C)CCNC(=O)c1ccc2[nH]c(-c3n[nH]c4c3CCC(C)(C)C4)cc2c1 [Example 323]
48 | 8 |  | CC(C(=O)N(C)c1ccc2cc(-c3n[nH]c4c3CCC(C)(C)C4)[nH]c2c1)N1CCCC1=O (centres unmarked) [Example 134]
49 | 4 |  | CO[C@@H]1CCCN(CC(=O)N(C)c2ccc3cc(-c4n[nH]c5c4CCC(C)(C)C5)[nH]c3c2)C1 [Example 115]
50 | 14 |  | CC(=O)N(C)[C@@H](C)C(=O)N(C)c1ccc2cc(-c3n[nH]c4c3CCC(C)(C)C4)[nH]c2c1 [Example 202]
51 | 12 |  | CN(C(=O)COc1ccccc1)c1ccc2cc(-c3n[nH]c4c3CCCC4)[nH]c2c1 [Example 362]
52 | 3 |  | CN(C(=O)CN1CCOCC1)c1ccc2cc(-c3n[nH]c4c3CCC(C)(C)C4)[nH]c2c1 [Example 80]
53 | 27 |  | C[C@@H](C(=O)N(C)c1ccc2cc(-c3n[nH]c4c3CCC(C)(C)C4)[nH]c2c1)N(C)C(=O)C1CC1 [Example 205]
54 | 9 |  | COCC(=O)N(C)c1ccc2cc(-c3n[nH]c4c3CCC(C)C4)[nH]c2c1 (centres unmarked) [Example 356]
55 | 26 |  | CC(C)C(CO)N(C)C(=O)c1ccc2cc(-c3n[nH]c4c3CCC(C)(C)C4)[nH]c2c1 (centres unmarked) [Example 25]
56 | 207 |  | COCC(=O)N(C)c1ccc2cc(-c3n[nH]c4c3CC(OC)CC4)[nH]c2c1 (centres unmarked) [Example 369]
57 | 34 |  | CN(C(=O)c1cccc(C(F)(F)F)c1)c1ccc2cc(-c3n[nH]c4c3CCC(C)(C)C4)[nH]c2c1 [Example 31]
58 |  | 2 | CC(NCCOCC(=O)O)C(=O)N(C)c1ccc2cc(-c3n[nH]c4c3CCC(C)(C)C4)[nH]c2c1 (centres unmarked) [Example 380]
59 | 10 |  | CC1(C)CCc2c(-c3cc4ccc(N(CCO)C(=O)C(O)C5CCCOC5)cc4[nH]3)n[nH]c2C1 (centres unmarked) [Example 245]
60 | 5 |  | CC1(C)CCc2c(-c3cc4ccc(N(CCO)C(=O)CN5CCOCC5)cc4[nH]3)n[nH]c2C1 [Example 254]
61 | 48 |  | CON(C)C(=O)c1ccc2[nH]c(-c3n[nH]c4c3CCC(C)(C)C4)cc2c1 [Example 321]
62 | 27 |  | CC1(C)CCc2c(-c3cc4cc(C(=O)NCC(=O)O)ccc4[nH]3)n[nH]c2C1 [Example 306]
